In assay [1] the target is T1, Histone deacetylase 11 (Homo sapiens) (UniProt Q96DB2).
T1 sequence (whole entry): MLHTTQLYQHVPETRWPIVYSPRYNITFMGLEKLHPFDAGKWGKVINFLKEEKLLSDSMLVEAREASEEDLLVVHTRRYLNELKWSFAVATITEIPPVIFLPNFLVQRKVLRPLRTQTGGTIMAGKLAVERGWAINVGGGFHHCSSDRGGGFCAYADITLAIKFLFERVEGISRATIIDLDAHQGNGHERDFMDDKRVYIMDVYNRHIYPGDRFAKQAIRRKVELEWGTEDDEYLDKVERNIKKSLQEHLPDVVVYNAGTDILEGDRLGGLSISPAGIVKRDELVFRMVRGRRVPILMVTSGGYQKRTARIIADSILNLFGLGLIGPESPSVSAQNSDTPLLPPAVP
The assay is described as follows: Inhibition of HDAC11 (unknown origin) expressed in HEK293T cells at 100 uM relative to control. The assay is classed as cell-based.

For assay [2], the target named is T2, Histone deacetylase 8 (Homo sapiens, UniProt Q9BY41).
T2 sequence (Q9BY41 whole entry): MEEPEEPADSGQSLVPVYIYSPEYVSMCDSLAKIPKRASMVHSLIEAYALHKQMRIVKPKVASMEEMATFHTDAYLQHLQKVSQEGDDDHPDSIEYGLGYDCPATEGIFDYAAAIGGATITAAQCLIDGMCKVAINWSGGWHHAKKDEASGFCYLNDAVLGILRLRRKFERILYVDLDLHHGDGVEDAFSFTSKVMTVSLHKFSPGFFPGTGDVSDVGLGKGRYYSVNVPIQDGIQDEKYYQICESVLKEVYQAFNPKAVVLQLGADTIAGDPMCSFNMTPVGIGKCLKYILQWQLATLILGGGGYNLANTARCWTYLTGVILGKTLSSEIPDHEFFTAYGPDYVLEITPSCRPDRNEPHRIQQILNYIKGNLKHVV
The assay is described as follows: Inhibition of human Flag-tagged HDAC8 expressed in HEK293T cells by fluorescence based analysis. The assay is classed as cell-based.

Assay [3] concerns the target T3, Histone deacetylase 11 (Homo sapiens, UniProt Q96DB2).
T3 sequence (Q96DB2 whole entry): T1 sequence (whole entry)
The assay is described as follows: Inhibition of HDAC11 (unknown origin).

Assay [4] deals with T4, Protein deacetylase HDAC6 (Homo sapiens, UniProt Q9UBN7).
T4 sequence (Q9UBN7 whole entry): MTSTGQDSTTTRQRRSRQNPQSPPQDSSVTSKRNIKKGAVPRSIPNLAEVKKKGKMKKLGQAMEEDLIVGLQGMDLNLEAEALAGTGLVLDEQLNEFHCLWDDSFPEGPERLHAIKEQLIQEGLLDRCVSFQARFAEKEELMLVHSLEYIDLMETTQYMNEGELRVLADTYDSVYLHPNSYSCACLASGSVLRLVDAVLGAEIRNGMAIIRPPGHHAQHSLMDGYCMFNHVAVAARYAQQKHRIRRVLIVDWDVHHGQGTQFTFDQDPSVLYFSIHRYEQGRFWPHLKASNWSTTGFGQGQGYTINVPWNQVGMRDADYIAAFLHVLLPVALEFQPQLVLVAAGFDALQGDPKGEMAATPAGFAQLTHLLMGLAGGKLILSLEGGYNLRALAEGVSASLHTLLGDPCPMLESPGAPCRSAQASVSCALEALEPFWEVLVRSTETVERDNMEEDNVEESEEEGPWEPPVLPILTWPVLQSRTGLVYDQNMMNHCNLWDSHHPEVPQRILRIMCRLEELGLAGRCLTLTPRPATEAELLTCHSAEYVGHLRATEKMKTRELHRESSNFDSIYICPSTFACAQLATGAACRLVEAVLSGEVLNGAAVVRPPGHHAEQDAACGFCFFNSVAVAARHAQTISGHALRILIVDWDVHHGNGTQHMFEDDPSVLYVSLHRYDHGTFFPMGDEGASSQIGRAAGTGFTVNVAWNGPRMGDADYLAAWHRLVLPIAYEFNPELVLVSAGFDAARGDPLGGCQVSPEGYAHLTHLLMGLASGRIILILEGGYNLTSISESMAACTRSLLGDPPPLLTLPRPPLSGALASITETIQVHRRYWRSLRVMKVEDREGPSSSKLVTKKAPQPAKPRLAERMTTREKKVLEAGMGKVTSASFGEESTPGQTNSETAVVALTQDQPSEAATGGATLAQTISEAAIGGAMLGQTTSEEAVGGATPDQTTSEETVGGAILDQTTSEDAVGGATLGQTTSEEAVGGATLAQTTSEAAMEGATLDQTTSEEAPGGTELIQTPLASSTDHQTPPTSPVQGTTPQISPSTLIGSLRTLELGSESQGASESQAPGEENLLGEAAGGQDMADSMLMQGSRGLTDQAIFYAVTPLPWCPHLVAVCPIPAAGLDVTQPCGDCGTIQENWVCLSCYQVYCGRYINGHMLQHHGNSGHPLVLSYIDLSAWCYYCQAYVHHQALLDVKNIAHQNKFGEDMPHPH
As to the kind of experiment: Inhibition of human recombinant HDAC6 using AMC-K(Ac)GL as substrate by fluorescence based assay.

The target in assay [5] is T3, Histone deacetylase 11. The assay is described as follows: Inhibition of full length human recombinant HDAC11 using FAM-RHKK(tri-fluor-Ac)-NH2 as substrate by electrophoretic mobility shift assay. On the technique in general: A gel shift assay detects complexes by their altered migration in electrophoresis.
For assay [6], the target named is T3, Histone deacetylase 11. As to the kind of experiment: Inhibition of full length N-terminal GST-tagged human HDAC11.

Drawing on ChEMBL document CHEMBL6071125, “Biological function and small molecule inhibitors of histone deacetylase 11” (Eur J Med Chem, 2024), this text covers inhibition and IC50 for 14 molecules.

Square brackets hold non-standard residues; d marks the D form. Peptide text beside a SMILES is read from it. * marks the point of attachment. Asu = N[C@@H](CCCCCC(=O)O)C(=O)O; dPip = O=C(O)[C@H]1CCCCN1; NHOH = ON*

Usually inhibition stands for the relative decrease from the control value, in per cent. Low readings indicate a response near the control, high ones a response far below the control. Regarding `CCCC(=O)O`, the inhibition in assay [1] is less than 5%. One may read the IC50 as the concentration at which inhibition is half-maximal. The molecule `CCCCCCCCCCCCCCCCNNC(=O)c1ccc(N(C)C)cc1` had an IC50 in assay [2] greater than 100 µM. `O=C(O)/C=C/c1ccc(-c2ccc(O)c(C34CC5CC(CC(C5)C3)C4)c2)cc1` [ADAROTENE]: the IC50 in assay [3] was greater than 10 µM. Regarding `CCCCCCCCCCCCCCCCNNC(=O)c1cccs1`, the IC50 in assay [2] is greater than 100 µM.

On to `Cn1c(/C=C/C(=O)NO)ccc1/C=C/C(=O)c1cccc(F)c1`, for which, in assay [4], the IC50 is 8.4 µM. For the molecule `CCCCCCCC(=O)O`, the inhibition in assay [1] was less than 20%.

Regarding `CCCCCCCCCCCCCCCC(=O)O` [PALMITIC ACID], in assay [5], the IC50 was found to be 900 µM.

In the case of `CCCCCC(=O)O`, the inhibition in assay [1] is less than 20%. Take `CC(=O)O`: the inhibition in assay [1] is less than 10%. Still for that read-out and setting: with `O=C(O)C(F)(F)F` the figure was less than 5%; with `CCC(=O)O`, less than 10%. In assay [6], `CC[C@H](C)[C@@H]1NC(=O)[C@H](Cc2c[nH]c3ccccc23)NC(=O)[C@H](CCCCCC(=O)NO)NC(=O)[C@H]2CCCCN2C1=O` (cyclo([Asu](NHOH)WI[dPip])) showed an IC50 of 10 nM. Take `O=C(O)CCCC[C@@H]1SC[C@@H]2NC(=O)N[C@@H]21`: in assay [1], the inhibition was less than 20%.

In turn, `O=C(O)CCCC[C@@H]1CCSS1` registered an inhibition in assay [1] of less than 20%.
